In ChEMBL document CHEMBL1133982, “Selective heterocyclic amidine inhibitors of human inducible nitric oxide synthase” (Bioorg Med Chem Lett, 2001) one finds IC50 and inhibition data, which are given here for 15 molecules.

As a reminder, the IC50 is the concentration needed to halve the response being measured. Low values mean greater potency in that assay, high ones weaker potency in that assay. As a reminder, the inhibition is the share of the control response that was lost under treatment. A higher inhibition goes with a strong effect.

The target in test [1] is T1, Nitric oxide synthase 1 (Homo sapiens, UniProt P29475). The test can be described thus: Inhibition of Neuronal nitric oxide synthase.
The target of test [2] is T2, Nitric oxide synthase 3 (Homo sapiens, UniProt P29474).
T2 sequence (P29474 whole entry): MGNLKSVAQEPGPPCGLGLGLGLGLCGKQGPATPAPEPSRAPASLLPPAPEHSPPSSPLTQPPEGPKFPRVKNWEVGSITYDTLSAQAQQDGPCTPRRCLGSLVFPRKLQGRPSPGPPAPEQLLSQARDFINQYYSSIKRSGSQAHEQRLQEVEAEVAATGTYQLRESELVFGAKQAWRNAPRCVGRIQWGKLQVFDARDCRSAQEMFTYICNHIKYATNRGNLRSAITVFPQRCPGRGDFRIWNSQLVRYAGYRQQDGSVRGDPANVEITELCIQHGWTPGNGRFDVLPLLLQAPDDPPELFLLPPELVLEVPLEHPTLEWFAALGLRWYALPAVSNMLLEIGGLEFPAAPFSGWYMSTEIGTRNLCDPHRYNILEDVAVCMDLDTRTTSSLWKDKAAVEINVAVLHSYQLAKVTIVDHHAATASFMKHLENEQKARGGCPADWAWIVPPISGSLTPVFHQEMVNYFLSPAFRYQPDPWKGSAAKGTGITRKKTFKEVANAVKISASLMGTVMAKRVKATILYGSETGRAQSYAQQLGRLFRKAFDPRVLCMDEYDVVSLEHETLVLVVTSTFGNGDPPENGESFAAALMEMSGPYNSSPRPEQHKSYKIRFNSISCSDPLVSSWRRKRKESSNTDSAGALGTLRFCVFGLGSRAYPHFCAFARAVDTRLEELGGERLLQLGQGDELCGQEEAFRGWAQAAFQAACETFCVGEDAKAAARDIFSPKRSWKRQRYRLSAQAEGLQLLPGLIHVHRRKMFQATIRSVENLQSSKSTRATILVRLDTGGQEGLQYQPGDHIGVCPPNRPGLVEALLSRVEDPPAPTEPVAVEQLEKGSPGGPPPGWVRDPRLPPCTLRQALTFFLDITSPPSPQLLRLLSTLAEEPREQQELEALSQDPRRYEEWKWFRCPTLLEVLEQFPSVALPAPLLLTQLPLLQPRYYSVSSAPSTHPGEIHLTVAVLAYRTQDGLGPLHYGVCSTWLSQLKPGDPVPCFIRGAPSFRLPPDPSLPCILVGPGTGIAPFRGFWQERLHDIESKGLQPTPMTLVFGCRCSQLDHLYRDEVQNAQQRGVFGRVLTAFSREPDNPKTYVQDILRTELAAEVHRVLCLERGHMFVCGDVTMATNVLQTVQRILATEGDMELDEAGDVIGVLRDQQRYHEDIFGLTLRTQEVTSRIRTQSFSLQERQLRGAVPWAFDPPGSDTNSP
The test can be described thus: Inhibition of endothelial nitric oxide synthase.

Test [3] concerns the target T3, Nitric oxide synthase, inducible (Homo sapiens, UniProt P35228). The test can be described thus: Inhibition of inducible nitric oxide synthase.
The target in test [4] is T4, Nitric oxide synthase 3 (Homo sapiens) (UniProt P29474).
T4 sequence (whole entry): T2 sequence (P29474 whole entry)
The test can be described thus: Inhibitory activity against Endothelial nitric oxide synthase at 100 uM concentration was determined.

For test [5], the target named is T3, Nitric oxide synthase, inducible. Briefly: Inhibitory activity against Inducible nitric oxide synthase at 100 uM concentration was determined.
In test [6] the target is T1, Nitric oxide synthase 1. The test can be described thus: Inhibitory activity against Neuronal nitric oxide synthase at 100 uM concentration was determined.

T3 sequence (P35228 whole entry): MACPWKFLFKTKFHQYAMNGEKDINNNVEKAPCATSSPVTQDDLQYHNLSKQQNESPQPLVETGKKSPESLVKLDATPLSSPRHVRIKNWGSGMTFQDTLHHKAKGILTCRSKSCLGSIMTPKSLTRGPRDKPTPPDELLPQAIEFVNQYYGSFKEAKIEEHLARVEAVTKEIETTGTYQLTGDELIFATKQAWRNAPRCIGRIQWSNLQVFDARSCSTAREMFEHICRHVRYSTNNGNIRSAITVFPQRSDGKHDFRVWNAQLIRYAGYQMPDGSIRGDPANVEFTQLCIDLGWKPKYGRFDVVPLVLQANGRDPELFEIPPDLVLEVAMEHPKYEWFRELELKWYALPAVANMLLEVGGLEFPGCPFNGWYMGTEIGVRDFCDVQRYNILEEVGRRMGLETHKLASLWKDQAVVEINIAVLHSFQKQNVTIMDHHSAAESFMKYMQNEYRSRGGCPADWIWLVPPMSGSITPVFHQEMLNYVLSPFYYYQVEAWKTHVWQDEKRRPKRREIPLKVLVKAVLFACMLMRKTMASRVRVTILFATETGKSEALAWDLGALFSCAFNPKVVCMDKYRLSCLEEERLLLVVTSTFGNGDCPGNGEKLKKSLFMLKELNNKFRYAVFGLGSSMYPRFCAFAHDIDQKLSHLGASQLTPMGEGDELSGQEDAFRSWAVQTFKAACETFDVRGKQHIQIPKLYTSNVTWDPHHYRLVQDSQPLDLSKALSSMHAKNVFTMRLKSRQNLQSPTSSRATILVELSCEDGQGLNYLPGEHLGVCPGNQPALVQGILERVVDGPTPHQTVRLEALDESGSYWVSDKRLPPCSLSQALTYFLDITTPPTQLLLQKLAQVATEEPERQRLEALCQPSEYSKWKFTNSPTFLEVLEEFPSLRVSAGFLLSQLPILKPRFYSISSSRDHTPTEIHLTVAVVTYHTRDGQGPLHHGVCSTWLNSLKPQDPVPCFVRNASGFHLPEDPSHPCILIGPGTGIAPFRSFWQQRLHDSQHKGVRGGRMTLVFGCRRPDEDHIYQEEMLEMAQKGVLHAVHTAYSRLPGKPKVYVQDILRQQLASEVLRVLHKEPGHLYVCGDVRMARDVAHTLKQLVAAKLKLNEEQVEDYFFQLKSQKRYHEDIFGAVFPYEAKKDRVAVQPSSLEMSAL
T1 sequence (P29475 whole entry): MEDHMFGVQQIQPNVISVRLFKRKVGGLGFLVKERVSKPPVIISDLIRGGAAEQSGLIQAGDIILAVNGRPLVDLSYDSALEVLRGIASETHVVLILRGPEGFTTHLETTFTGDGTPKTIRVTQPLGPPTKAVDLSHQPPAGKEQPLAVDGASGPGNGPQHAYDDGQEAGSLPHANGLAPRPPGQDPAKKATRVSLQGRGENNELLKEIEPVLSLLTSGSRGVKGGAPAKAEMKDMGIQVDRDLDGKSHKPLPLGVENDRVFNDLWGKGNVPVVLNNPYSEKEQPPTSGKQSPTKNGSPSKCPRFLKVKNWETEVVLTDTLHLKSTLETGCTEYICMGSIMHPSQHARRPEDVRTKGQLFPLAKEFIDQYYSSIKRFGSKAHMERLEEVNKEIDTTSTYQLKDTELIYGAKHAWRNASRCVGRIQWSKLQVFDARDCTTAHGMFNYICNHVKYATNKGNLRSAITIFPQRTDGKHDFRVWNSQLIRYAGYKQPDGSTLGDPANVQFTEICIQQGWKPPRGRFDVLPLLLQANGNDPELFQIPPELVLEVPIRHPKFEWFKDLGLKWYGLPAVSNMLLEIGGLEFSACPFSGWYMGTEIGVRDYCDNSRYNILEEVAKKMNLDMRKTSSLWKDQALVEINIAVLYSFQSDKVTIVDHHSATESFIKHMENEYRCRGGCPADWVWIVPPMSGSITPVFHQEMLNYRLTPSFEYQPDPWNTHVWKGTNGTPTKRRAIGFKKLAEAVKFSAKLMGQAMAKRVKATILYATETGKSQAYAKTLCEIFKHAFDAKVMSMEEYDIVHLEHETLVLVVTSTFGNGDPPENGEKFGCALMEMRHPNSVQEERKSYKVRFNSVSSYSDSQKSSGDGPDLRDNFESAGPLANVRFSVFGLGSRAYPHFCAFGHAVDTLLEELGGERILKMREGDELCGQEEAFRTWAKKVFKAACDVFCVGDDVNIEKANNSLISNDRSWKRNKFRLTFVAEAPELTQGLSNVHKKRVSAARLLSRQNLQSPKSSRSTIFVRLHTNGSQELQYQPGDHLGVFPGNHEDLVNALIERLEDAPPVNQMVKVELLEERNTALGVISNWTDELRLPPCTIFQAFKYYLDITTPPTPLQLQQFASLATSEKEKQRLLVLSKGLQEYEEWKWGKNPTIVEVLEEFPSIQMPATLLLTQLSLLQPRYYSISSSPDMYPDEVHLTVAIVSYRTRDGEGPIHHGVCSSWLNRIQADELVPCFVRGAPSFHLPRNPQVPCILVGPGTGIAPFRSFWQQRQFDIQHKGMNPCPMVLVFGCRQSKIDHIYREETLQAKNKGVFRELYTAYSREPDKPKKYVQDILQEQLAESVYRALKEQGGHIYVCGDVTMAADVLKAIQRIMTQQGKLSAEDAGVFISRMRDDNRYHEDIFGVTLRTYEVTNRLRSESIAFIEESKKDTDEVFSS

Regarding `N/C1=N/CCCSCC1`, the IC50 in test [1] is 21 µM; in test [2] it was 186 µM; in test [3] it was 13.1 µM.

`CCOC(=O)[C@H]1CSCCC(N)=N1`: the inhibition was 13.9% in test [4], 70.9% in test [5] and 82.6% in test [6].

As to `C/C=C/CC1CCCCC(N)=N1` (configuration not stated), the IC50 in test [1] was 3.39 µM; in test [2] it was 206 µM; in test [3], 0.89 µM.

In the case of `CCOC(=O)[C@@H]1CSCCC(N)=N1`, the inhibition in test [4] was found to be 8.66%; in test [5], 70.9%; in test [6] it was 84.8%.

As to `CCCCC1CCCCC(N)=N1` (configuration not stated), in test [3], the IC50 is 0.517 µM.

On to `NCCC1CCCCC(N)=N1` (configuration not stated), for which the IC50 in test [1] amounted to 0.932 µM; in test [2] it was 39.1 µM; in test [3], 0.701 µM.

As to `NCCC1COCCC(N)=N1` (configuration not stated), the IC50 in test [1] is 8.39 µM; in test [2], 248 µM; in test [3], 6.66 µM.

On to `C/C=C/CC1COCCC(N)=N1` (configuration not stated), for which the concentration for half-maximal inhibition (IC50) amounted to 108 µM in test [1], 709 µM in test [2] and 9.26 µM in test [3].

`NC1=NC(CC[N+](=O)[O-])CCCC1` (configuration not stated): the IC50 in test [1] is 0.339 µM; in test [2], 2.77 µM; in test [3], 0.152 µM.

As for `CCOC(=O)[C@@H]1CCSCC/C(N)=N\1`, the inhibition in test [4] is 2.4%; in test [5], 55.7%; in test [6], 13.9%.

With `CCCCC1COCCC(N)=N1` (configuration not stated), the values for the IC50 in test [1], in test [2] and in test [3] were 25.9 µM, 1360 µM and 2.43 µM, respectively.

As to `NC1=NCCSCC1`, the IC50 came out at 6.8 µM in test [1], 43.6 µM in test [2] and 2.7 µM in test [3].

As to `NC1=NCCOCC1`, the IC50 in test [1] amounted to 17.7 µM; in test [2] it was 72.7 µM; in test [3], 14 µM.

On to `N=C1CCOCC(CC[N+](=O)[O-])N1` (configuration not stated), for which the values for the IC50 in test [1], in test [2] and in test [3] were 6.24 µM, 49.3 µM and 0.979 µM, respectively.

`CN1CCN=C(N)CC1`: the inhibition in test [4] turned out to be 6.42%; in test [5], 32.1%.
